Measured values published in patent US9302999B2, “Substituted triazoles as herbicides” (E. I. DU PONT DE NEMOURS AND COMPANY, priority 2012, dated 2016).
Like-named read-outs stand apart in the source and are kept apart here.

Tests used:
Assay type in all cases: in vivo
[1] = system: barnyardgrass (Echinochloa crus-galli); experiment: Test A pre-/postemergence: barnyardgrass; conditions: for pest or weed control at 125 g/ha / pest or weed control at 500 g/ha: Echinochloa crus-galli, 240 h
Text: (§1) Seeds of barnyardgrass (Echinochloa crus-galli), crabgrass, large (large crabgrass, Digitaria sanguinalis), foxtail, giant (giant foxtail, Setaria faberii), morningglory (Ipomoea spp.), pigweed (Amaranthus retroflexus), velvetleaf (Abutilon theophrasti), wheat (Triticum aestivum), and corn (Zea mays) were planted into a blend of loam soil and sand and treated preemergence with a directed soil spray using test chemicals formulated in a non-phytotoxic solvent mixture which included a surfactant. At the same time these species were also treated with postemergence applications of test chemicals formulated in the same manner.
(§2) Plants ranged in height from two to ten cm and were in the one- to two-leaf stage for the postemergence treatment. Treated plants and untreated controls were maintained in a greenhouse for approximately ten days, after which time all treated plants were compared to untreated controls and visually evaluated for injury. Plant response ratings, summarized in Table A, are based on a 0 to 100 scale where 0 is no effect and 100 is complete control. A dash (-) response means no test result.

[2] = system: crabgrass, large (large crabgrass, Digitaria sanguinalis); experiment: Test A pre-/postemergence: crabgrass, large; conditions: for pest or weed control at 125 g/ha / pest or weed control at 500 g/ha: Digitaria sanguinalis, 240 h
Text: as §1, §2

[3] = system: foxtail, giant (giant foxtail, Setaria faberii); experiment: Test A pre-/postemergence: foxtail, giant; conditions: for pest or weed control at 125 g/ha / pest or weed control at 500 g/ha: Setaria faberi, 240 h
Text: as §1, §2

[4] = system: morningglory (Ipomoea spp.); experiment: Test A pre-/postemergence: morningglory; conditions: for pest or weed control at 125 g/ha / pest or weed control at 500 g/ha: Ipomoea, 240 h
Text: as §1, §2

[5] = system: pigweed (Amaranthus retroflexus); experiment: Test A pre-/postemergence: pigweed; conditions: for pest or weed control at 125 g/ha / pest or weed control at 500 g/ha: Amaranthus retroflexus, 240 h
Text: as §1, §2

[6] = system: velvetleaf (Abutilon theophrasti); experiment: Test A pre-/postemergence: velvetleaf; conditions: for pest or weed control at 125 g/ha / pest or weed control at 500 g/ha: Abutilon theophrasti, 240 h
Text: as §1, §2

[7] = system: wheat (Triticum aestivum); experiment: Test A pre-/postemergence: wheat; conditions: for plant injury at 125 g/ha / plant injury at 500 g/ha: Triticum aestivum, 240 h
Text: as §1, §2

[8] = system: corn (Zea mays); experiment: Test A pre-/postemergence: corn
Text: as §1, §2

[9] = Postemergence, 125 g ai/ha, 0 to 100 scale, 0 is no effect, 100 is complete control
[10] = Postemergence, 500 g ai/ha, visual rating on 0 to 100 scale (0 no effect, 100 complete control), approximately ten days
[11] = Preemergence, 125 g ai/ha, 0 to 100 scale (0 no effect, 100 complete control)
[12] = Preemergence, 500 g ai/ha, 0 to 100 scale, 0 is no effect, 100 is complete control
[13] = Preemergence, 125 g ai/ha, 0 to 100 scale where 0 is no effect and 100 is complete control

OCc1nn(-c2ccc(C(F)(F)F)cc2)nc1Oc1cccc(C(F)(F)F)c1 [Compound 110]
Barnyardgrass plant response rating [1, 9]: 20
Barnyardgrass plant response rating [1, 10]: 30
Plant response rating, Barnyardgrass [1, 11]: 0
Plant response rating, Barnyardgrass [1, 12]: 0
Crabgrass, Large plant response rating [2, 9]: 50
Crabgrass, Large plant response rating [2, 10]: 70
Plant response rating, Crabgrass, Large [2, 11]: 0
Plant response rating, Crabgrass, Large [2, 12]: 20
Foxtail, Giant plant response rating [3, 9]: 20
Foxtail, Giant plant response rating [3, 10]: 30
Plant response rating, Foxtail, Giant [3, 13]: 0
Plant response rating, Foxtail, Giant [3, 12]: 20
Morningglory plant response rating [4, 9]: 90
Morningglory plant response rating [4, 10]: 100
Plant response rating, Morningglory [4, 13]: 10
Plant response rating, Morningglory [4, 12]: 20
Pigweed plant response rating [5, 9]: 70
Pigweed plant response rating [5, 10]: 100
Plant response rating, Pigweed [5, 13]: 0
Plant response rating, Pigweed [5, 12]: 50
Velvetleaf plant response rating [6, 9]: 30
Velvetleaf plant response rating [6, 10]: 60
Plant response rating, Velvetleaf [6, 13]: 0
Plant response rating, Velvetleaf [6, 12]: 10
Wheat plant response rating [7, 9]: 10
Wheat plant response rating [7, 10]: 30
Plant response rating, Wheat [7, 13]: 0
Plant response rating, Wheat [7, 12]: 0
Corn plant response rating [8, 9]: 20
Corn plant response rating [8, 10]: 30
Plant response rating, Corn [8, 11]: 0
Plant response rating, Corn [8, 12]: 0

OCc1nn(-c2ccc(C(F)(F)F)cc2)nc1Oc1cccc(OC(F)(F)F)c1 [Compound 114, 5-[3-(trifluoromethoxy)phenoxy]-2-[4-(trifluoromethyl)phenyl]-2H-1,2,3-triazole-4-methanol]
pest or weed control at 125 g/ha ([1]; post-emergence, Postemergence, 125 g ai/ha, 0 to 100 scale, 0 is no effect, 100 is complete control, read-out: Barnyardgrass plant response rating): 30%
pest or weed control at 500 g/ha ([1]; post-emergence, Postemergence, 500 g ai/ha, visual rating on 0 to 100 scale (0 no effect, 100 complete control), approximately ten days, read-out: Barnyardgrass plant response rating): 30%
pest or weed control at 125 g/ha ([1]; pre-emergence, Preemergence, 125 g ai/ha, 0 to 100 scale where 0 is no effect and 100 is complete control, read-out: Plant response rating, Barnyardgrass): 0%
pest or weed control at 500 g/ha ([1]; pre-emergence, Preemergence, 500 g ai/ha, 0 to 100 scale (0 no effect, 100 complete control), read-out: Plant response rating, Barnyardgrass): 0%
pest or weed control at 125 g/ha ([2]; post-emergence, Postemergence, 125 g ai/ha, 0 to 100 scale, 0 is no effect, 100 is complete control, read-out: Crabgrass, Large plant response rating): 30%
pest or weed control at 500 g/ha ([2]; post-emergence, Postemergence, 500 g ai/ha, visual rating on 0 to 100 scale (0 no effect, 100 complete control), approximately ten days, read-out: Crabgrass, Large plant response rating): 70%
pest or weed control at 125 g/ha ([2]; pre-emergence, Preemergence, 125 g ai/ha, 0 to 100 scale where 0 is no effect and 100 is complete control, read-out: Plant response rating, Crabgrass, Large): 0%
pest or weed control at 500 g/ha ([2]; pre-emergence, Preemergence, 500 g ai/ha, 0 to 100 scale (0 no effect, 100 complete control), read-out: Plant response rating, Crabgrass, Large): 30%
pest or weed control at 125 g/ha ([3]; post-emergence, Postemergence, 125 g ai/ha, 0 to 100 scale, 0 is no effect, 100 is complete control, read-out: Foxtail, Giant plant response rating): 30%
pest or weed control at 500 g/ha ([3]; post-emergence, Postemergence, 500 g ai/ha, visual rating on 0 to 100 scale (0 no effect, 100 complete control), approximately ten days, read-out: Foxtail, Giant plant response rating): 40%
pest or weed control at 125 g/ha ([3]; pre-emergence, Preemergence, 125 g ai/ha, 0 to 100 scale where 0 is no effect and 100 is complete control, read-out: Plant response rating, Foxtail, Giant): 0%
pest or weed control at 500 g/ha ([3]; pre-emergence, Preemergence, 500 g ai/ha, 0 to 100 scale (0 no effect, 100 complete control), read-out: Plant response rating, Foxtail, Giant): 10%
pest or weed control at 125 g/ha ([4]; post-emergence, Postemergence, 125 g ai/ha, 0 to 100 scale, 0 is no effect, 100 is complete control, read-out: Morningglory plant response rating): 60%
pest or weed control at 500 g/ha ([4]; post-emergence, Postemergence, 500 g ai/ha, visual rating on 0 to 100 scale (0 no effect, 100 complete control), approximately ten days, read-out: Morningglory plant response rating): 90%
pest or weed control at 125 g/ha ([4]; pre-emergence, Preemergence, 125 g ai/ha, 0 to 100 scale where 0 is no effect and 100 is complete control, read-out: Plant response rating, Morningglory): 10%
pest or weed control at 500 g/ha ([4]; pre-emergence, Preemergence, 500 g ai/ha, 0 to 100 scale (0 no effect, 100 complete control), read-out: Plant response rating, Morningglory): 30%
pest or weed control at 125 g/ha ([5]; post-emergence, Postemergence, 125 g ai/ha, 0 to 100 scale, 0 is no effect, 100 is complete control, read-out: Pigweed plant response rating): 80%
pest or weed control at 500 g/ha ([5]; post-emergence, Postemergence, 500 g ai/ha, visual rating on 0 to 100 scale (0 no effect, 100 complete control), approximately ten days, read-out: Pigweed plant response rating): 90%
pest or weed control at 125 g/ha ([5]; pre-emergence, Preemergence, 125 g ai/ha, 0 to 100 scale where 0 is no effect and 100 is complete control, read-out: Plant response rating, Pigweed): 0%
pest or weed control at 500 g/ha ([5]; pre-emergence, Preemergence, 500 g ai/ha, 0 to 100 scale (0 no effect, 100 complete control), read-out: Plant response rating, Pigweed): 10%
pest or weed control at 125 g/ha ([6]; post-emergence, Postemergence, 125 g ai/ha, 0 to 100 scale, 0 is no effect, 100 is complete control, read-out: Velvetleaf plant response rating): 30%
pest or weed control at 500 g/ha ([6]; post-emergence, Postemergence, 500 g ai/ha, visual rating on 0 to 100 scale (0 no effect, 100 complete control), approximately ten days, read-out: Velvetleaf plant response rating): 50%
pest or weed control at 125 g/ha ([6]; pre-emergence, Preemergence, 125 g ai/ha, 0 to 100 scale where 0 is no effect and 100 is complete control, read-out: Plant response rating, Velvetleaf): 0%
pest or weed control at 500 g/ha ([6]; pre-emergence, Preemergence, 500 g ai/ha, 0 to 100 scale (0 no effect, 100 complete control), read-out: Plant response rating, Velvetleaf): 10%
plant injury at 125 g/ha ([7]; post-emergence, Postemergence, 125 g ai/ha, 0 to 100 scale, 0 is no effect, 100 is complete control, read-out: Wheat plant response rating): 10%
plant injury at 500 g/ha ([7]; post-emergence, Postemergence, 500 g ai/ha, visual rating on 0 to 100 scale (0 no effect, 100 complete control), approximately ten days, read-out: Wheat plant response rating): 30%
plant injury at 125 g/ha ([7]; pre-emergence, Preemergence, 125 g ai/ha, 0 to 100 scale where 0 is no effect and 100 is complete control, read-out: Plant response rating, Wheat): 0%
plant injury at 500 g/ha ([7]; pre-emergence, Preemergence, 500 g ai/ha, 0 to 100 scale (0 no effect, 100 complete control), read-out: Plant response rating, Wheat): 0%
plant injury at 125 g/ha ([8]; Zea mays, post-emergence, 240 h, Postemergence, 125 g ai/ha, 0 to 100 scale, 0 is no effect, 100 is complete control, read-out: Corn plant response rating): 20%
plant injury at 500 g/ha ([8]; Zea mays, post-emergence, 240 h, Postemergence, 500 g ai/ha, visual rating on 0 to 100 scale (0 no effect, 100 complete control), approximately ten days, read-out: Corn plant response rating): 30%
Corn plant response rating (crop injury, 0 = no effect, 100 = complete kill) at 125 g/ha ([8]; Zea mays, pre-emergence, 240 h, Preemergence, 125 g ai/ha, 0 to 100 scale where 0 is no effect and 100 is complete control): 0%
Corn plant response rating (crop injury, 0 = no effect, 100 = complete kill) at 500 g/ha ([8]; Zea mays, pre-emergence, 240 h, Preemergence, 500 g ai/ha, 0 to 100 scale (0 no effect, 100 complete control)): 0%

Cc1nn(-c2ccc(F)cc2)nc1Oc1ccc(Cl)c(C(F)(F)F)c1 [Compound 99]
Barnyardgrass plant response rating [1, 9]: 10
Barnyardgrass plant response rating [1, 10]: 30
Plant response rating, Barnyardgrass [1, 11]: 0
Plant response rating, Barnyardgrass [1, 12]: 10
Crabgrass, Large plant response rating [2, 9]: 30
Crabgrass, Large plant response rating [2, 10]: 70
Plant response rating, Crabgrass, Large [2, 11]: 30
Plant response rating, Crabgrass, Large [2, 12]: 60
Foxtail, Giant plant response rating [3, 9]: 20
Foxtail, Giant plant response rating [3, 10]: 80
Plant response rating, Foxtail, Giant [3, 13]: 10
Plant response rating, Foxtail, Giant [3, 12]: 80
Morningglory plant response rating [4, 9]: 60
Morningglory plant response rating [4, 10]: 80
Plant response rating, Morningglory [4, 13]: 0
Plant response rating, Morningglory [4, 12]: 0
Pigweed plant response rating [5, 9]: 70
Pigweed plant response rating [5, 10]: 100
Plant response rating, Pigweed [5, 13]: 20
Plant response rating, Pigweed [5, 12]: 60
Velvetleaf plant response rating [6, 9]: 10
Velvetleaf plant response rating [6, 10]: 60
Plant response rating, Velvetleaf [6, 13]: 0
Plant response rating, Velvetleaf [6, 12]: 20
Wheat plant response rating [7, 9]: 0
Wheat plant response rating [7, 10]: 20
Plant response rating, Wheat [7, 13]: 0
Plant response rating, Wheat [7, 12]: 0
Corn plant response rating [8, 9]: 20
Corn plant response rating [8, 10]: 20
Plant response rating, Corn [8, 11]: 0
Plant response rating, Corn [8, 12]: 0
